Patent publication US9849143B2, “Broad spectrum antiviral and methods of use” (The Burlington HC Research Group, Inc., priority 2006, dated 2017)
“And” between values parts separate entries of the source, which are not always exact repeats. Equal entries are not always repeated. Where two headings read alike, the source gives them in different places.

Tests used:
[1] = system: HIV; type: cell-based; conditions: for duration of action: cell culture, cysteamine re-added every 12 hours, WR-1065 added once in a 72 hour period
[2] = mouse, in vivo; cited from earlier work
[3] = mouse, in vivo, cited from earlier work
[4] = in vivo; cited from earlier work
[5] = system: Ad7-p (strain Gomen); assay: Infectious virus yield in A549 cell monolayers, Ad7-p; type: cell-based, adenovirus species B
[6] = system: Ad5-p (strain Adenoid 75); assay: Infectious virus yield in A549 cell monolayers, Ad5-p; type: cell-based, adenovirus species C
[7] = system: Ad4-p (strain RI-67); assay: Infectious virus yield in A549 cell monolayers, Ad4-p; type: cell-based, adenovirus species E
[8] = system: A/HKx31 (H3N2); type: cell-based, influenza A
[9] = system: Adenovirus 5p; assay: Plaque reduction assay in A549 cells; type: cell-based
[10] = system: PHA blasts; assay: Viability of PHA blasts exposed to WR-1065; type: cell-based, Human; conditions: uninfected PHA blasts
[11] = rhesus macaques, cited from earlier work
[12] = Experiment #1, 10 μM AZT, 72 hours
[13] = Experiment #1, 1000 μM WR1065, 72 hours

Cc1cn([C@H]2C[C@H](N=[N+]=[N-])[C@@H](CO)O2)c(=O)[nH]c1=O [AZT, Zidovudine]
Estimated percent viral inhibition [1, 12]: ~100%
HIV P24 [1, 12]: 0.13 pg/mL
Estimated percent viral inhibition ([1]; Experiment #3, 10 μM AZT): ~100%
HIV P24 ([1]; Experiment #3, 10 μM AZT): 2.9 pg/mL

NCCCNCCSP(=O)(O)O [Amifostine, S-2-(3-aminopropyl)aminoethyl phosphorothioic acid]
100% effective radioprotective dose [2]: about one half
maximally tolerated dose (MTD) ([3]; ip): 432 mg/kg BW
maximally tolerated dose (MTD) ([3]; po): 720 mg/kg BW
effects of single doses [4]: no untoward effects

NCCCNCCS [WR-1065, 2-(3-aminopropylamino)ethanethiol]
Mean infectious virus yields 96-h post infection & WR 1065 treatment ([5]; Trial 1, <10 μM WR 1065): 1.85 PFUs × 10^6
Mean infectious virus yields 96-h post infection & WR 1065 treatment ([5]; Trial 1, <33 μM WR 1065): 0.85 PFUs × 10^6
Mean infectious virus yields 96-h post infection & WR 1065 treatment ([5]; Trial 1, <100 μM WR 1065): 1.15 PFUs × 10^6
Mean infectious virus yields 96-h post infection & WR 1065 treatment ([5]; Trial 2, <100 μM WR 1065): 30.5 PFUs × 10^6
Mean infectious virus yields 96-h post infection & WR 1065 treatment ([6]; Trial 1, <10 μM WR 1065): 9.0 PFUs × 10^6
Mean infectious virus yields 96-h post infection & WR 1065 treatment ([6]; Trial 1, <33 μM WR 1065): 5.65 PFUs × 10^6
Mean infectious virus yields 96-h post infection & WR 1065 treatment ([6]; Trial 1, <100 μM WR 1065): 2.25 PFUs × 10^6
Mean infectious virus yields 96-h post infection & WR 1065 treatment ([6]; Trial 2, <33 μM WR 1065): 600 PFUs × 10^6
Mean infectious virus yields 96-h post infection & WR 1065 treatment ([6]; Trial 2, <100 μM WR 1065): 500 PFUs × 10^6
Mean infectious virus yields 96-h post infection & WR 1065 treatment ([6]; Trial 3, <33 μM WR 1065): 1,660 PFUs × 10^6
Mean infectious virus yields 96-h post infection & WR 1065 treatment ([7]; Trial 1, <33 μM WR 1065): 1,420 PFUs × 10^6
Mean infectious virus yields 96-h post infection & WR 1065 treatment ([7]; Trial 1, <100 μM WR 1065): 980 PFUs × 10^6
Mean infectious virus yields 96-h post infection & WR 1065 treatment ([7]; Trial 2, <100 μM WR 1065): 9.5 PFUs × 10^6
Mean plaque number [8]: 59.3 and 57 and 48
plaque number (plaque reduction assay) ([9]; 16.5 μM WR1065): 63
plaque number (plaque reduction assay) ([9]; 50 μM WR1065): 41
reduction of plaque number ([9]; 50 μM WR1065): 36%
Estimated percent viral inhibition [1, 13]: ~100%
HIV P24 [1, 13]: 0.13 pg/mL
suppression of HIV replication ([1]; WR-1065 at a concentration of less than 100 μM): > 99.9%
duration of action [1]: long duration of action
in vitro anti-HIV activity relative to cysteamine ([1]; compared by effective concentration): over 2 fold
% Viable Cells (compared to control) ([10]; 1 μM WR-1065, 72 hours): 83%
% Viable Cells (compared to control) ([10]; 5 μM WR-1065, 72 hours): 82%
% Viable Cells (compared to control) ([10]; 10 μM WR-1065, 72 hours): 90%
% Viable Cells (compared to control) ([10]; 50 μM WR-1065, 72 hours): 89%
% Viable Cells (compared to control) ([10]; 100 μM WR-1065, 72 hours): 63%
% Viable Cells (compared to control) ([10]; 500 μM WR-1065, 72 hours): 73%
% Viable Cells (compared to control) ([10]; 1000 μM WR-1065, 72 hours): 30%
Concentration (plasma) ([11]; 1 h after duodenal administration of 150 mg/kg BW of parent drug): 6210 ng/mL
Concentration (plasma) ([11]; 2 h after duodenal administration of 150 mg/kg BW of parent drug): 4140 ng/mL
Concentration (plasma) ([11]; 6 h after duodenal administration of 150 mg/kg BW of parent drug): 2070 ng/mL

NCCS [cysteamine, Cysteamine]
suppression of HIV replication ([1]; 200 μM cysteamine, in vitro assay system as described above): ~100%
duration of action [1]: very short
